Test results as given in US9670227B2, “Thienopyrimidine derivatives, a process for their preparation and pharmaceutical compositions containing them” (LES LABORATOIRES SERVIER, priority 2013, dated 2017).

Biological target: Mcl-1 protein (UniProtKB primary accession number: Q07820) (Homo sapiens, UniProt Q07820)
Assay: Inhibition of Mcl-1 by fluorescence polarisation, Method 1
Assay type: binding
Details: Method 1, or Method 2 where the value is underlined (underlining not visible); for IC50: fluorescence polarisation test, read-out: IC50 (M) Mcl-1 FP; for percentage fluorescence polarisation inhibition (Mcl-1 FP), partial inhibitors: test compound at 10 uM
In short: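 An 11-point DMSO dilution of compound is mixed with buffer (10 mM HEPES, 150 mM NaCl, 0.05% Tween 20, pH 7.4) carrying 1 nM fluorescein-labelled ligand and 5 nM Mcl-1, final concentrations. Displacement is monitored by fluorescence polarisation.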

Mcl-1 protein, sequence (Q07820 whole entry): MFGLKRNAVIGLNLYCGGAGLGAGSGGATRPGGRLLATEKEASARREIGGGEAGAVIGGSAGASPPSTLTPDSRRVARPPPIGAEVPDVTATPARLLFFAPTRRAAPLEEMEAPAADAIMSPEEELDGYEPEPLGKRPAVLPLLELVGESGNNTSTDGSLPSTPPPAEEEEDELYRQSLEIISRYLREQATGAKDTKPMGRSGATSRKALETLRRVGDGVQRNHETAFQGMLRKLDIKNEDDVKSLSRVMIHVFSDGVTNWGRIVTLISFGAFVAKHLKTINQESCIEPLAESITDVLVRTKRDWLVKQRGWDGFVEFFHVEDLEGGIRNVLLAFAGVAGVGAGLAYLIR

| Compound | IC50 | percentage fluorescence polarisation inhibition (Mcl-1 FP), partial inhibitors |
| --- | --- | --- |
| CCN(C)CCOc1ccc(-c2c(-c3ccc(F)cc3)sc3ncnc(OC(Cc4ccccc4OCc4ccnc(-c5ccccc5F)n4)C(=O)OCC(=O)N(C)C)c23)c(C)c1Cl [Example 822, 2-(dimethylamino)-2-oxoethyl (2R)-2-{[(5Sa)-5-(3-chloro-4-{2-[ethyl(methyl)amino]ethoxy}-2-methylphenyl)-6-(4-fluorophenyl)thieno[2,3-d]pyrimidin-4-yl]oxy}-3-(2-{[2-(2-fluorophenyl)pyrimidin-4-yl]methoxy}phenyl)propanoate] | 2.4e-06 M | – |
| CCN(C)CCOc1ccc(-c2c(-c3ccc(F)cc3)sc3ncnc(OC(Cc4ccccc4OCc4ccnc(-c5ccccc5F)n4)C(=O)OCc4oc(=O)oc4C)c23)c(C)c1Cl [Example 823, (5-methyl-2-oxo-1,3-dioxol-4-yl)methyl (2R)-2-{[(5Sa)-5-(3-chloro-4-{2-[ethyl(methyl)amino]ethoxy}-2-methylphenyl)-6-(4-fluorophenyl)thieno[2,3-d]pyrimidin-4-yl]oxy}-3-(2-{[2-(2-fluorophenyl)pyrimidin-4-yl]methoxy}phenyl)propanoate] | 1.98e-08 M | – |
| Cc1oc(=O)oc1COC(=O)C(Cc1ccccc1OCc1ccnn1C(C)(C)C)Oc1ncnc2sc(-c3cccc(F)c3F)c(-c3ccc(OCCN(C)C)c(Cl)c3C)c12 [Example 824, (5-methyl-2-oxo-1,3-dioxol-4-yl)methyl (2R)-3-{2-[(1-tert-butyl-1H-pyrazol-5-yl)methoxy]phenyl}-2-{[(5Sa)-5-{3-chloro-4-[2-(dimethylamino)ethoxy]-2-methylphenyl}-6-(2,3-difluorophenyl)thieno[2,3-d]pyrimidin-4-yl]oxy}propanoate] | 3.82e-08 M | – |
| Cc1c(-c2c(-c3cccc(F)c3F)sc3ncnc(OC(Cc4ccccc4OCc4ccnn4C(C)(C)C)C(=O)OCC(=O)N(C)C)c23)ccc(OCCN(C)C)c1Cl [Example 825, 2-(dimethylamino)-2-oxoethyl (2R)-3-{2-[(1-tert-butyl-1H-pyrazol-5-yl)methoxy]phenyl}-2-{[(5Sa)-5-{3-chloro-4-[2-(dimethylamino)ethoxy]-2-methylphenyl}-6-(2,3-difluorophenyl)thieno[2,3-d]pyrimidin-4-yl]oxy}propanoate] | 5.82e-07 M | – |
| CCOC(=O)[C@@H](Cc1ccccc1OCc1ccnc(-c2ccccc2OC)n1)Oc1ncnc2sc(-c3ccc(F)cc3)c(-c3ccc(OCCN4CCN(C)CC4)c(Cl)c3C)c12 [Example 830, ethyl (2R)-2-{[(5Ra)-5-{3-chloro-2-methyl-4-[2-(4-methylpiperazin-1-yl)ethoxy]phenyl}-6-(4-fluorophenyl)thieno[2,3-d]pyrimidin-4-yl]oxy}-3-(2-{[2-(2-methoxyphenyl)pyrimidin-4-yl]methoxy}phenyl)propanoate] | – | −11.9% @ 10 uM |
| COc1ccccc1-c1nccc(COc2ccccc2CC(Oc2ncnc3sc(-c4ccc(F)cc4)c(-c4ccc(OCCN5CC6(CN(C)C6)C5)c(Cl)c4C)c23)C(=O)O)n1 [Example 833, (2R)-2-{[(5Sa)-5-{3-chloro-2-methyl-4-[2-(6-methyl-2,6-diazaspiro[3.3]hept-2-yl)ethoxy]phenyl}-6-(4-fluorophenyl)thieno[2,3-d]pyrimidin-4-yl]oxy}-3-(2-{[2-(2-methoxyphenyl)pyrimidin-4-yl]methoxy}phenyl)propanoic acid] | 3.35e-09 M | – |
| [2H]C([2H])([2H])Oc1ccccc1-c1nccc(COc2ccccc2CC(Oc2ncnc3sc(-c4ccc(F)cc4)c(-c4ccc(OCCN5CCN(C)CC5)c(Cl)c4C)c23)C(=O)OCC)n1 [Example 839, ethyl (2R)-2-{[(5Sa)-5-{3-chloro-2-methyl-4-[2-(4-methylpiperazin-1-yl)ethoxy]phenyl}-6-(4-fluorophenyl)thieno[2,3-d]pyrimidin-4-yl]oxy}-3-{2-[(2-{2-[(^2H3)methyloxy]phenyl}pyrimidin-4-yl)methoxy]phenyl}propanoate] | 6.91e-07 M | – |
| COc1ccccc1-c1nccc(COc2ccccc2CC(Oc2ncnc3sc(-c4ccc(F)cc4)c(-c4ccc(OC)c(Cl)c4C)c23)C(=O)O)n1 [Example 841, (2R)-2-{[(5Sa)-5-(3-chloro-4-methoxy-2-methylphenyl)-6-(4-fluorophenyl)thieno[2,3-d]pyrimidin-4-yl]oxy}-3-(2-{[2-(2-methoxyphenyl)pyrimidin-4-yl]methoxy}phenyl)propanoic acid] | 4.8e-09 M | – |
| CCOC(=O)[C@@H](Cc1ccccc1OCc1ccnc(-c2ccccc2OC)n1)Oc1ncnc2sc(-c3ccc(F)cc3)c(-c3ccc(OC)c(Cl)c3C)c12 [Example 843, ethyl (2R)-2-{[(5Sa)-5-(3-chloro-4-methoxy-2-methylphenyl)-6-(4-fluorophenyl)thieno[2,3-d]pyrimidin-4-yl]oxy}-3-(2-{[2-(2-methoxyphenyl)pyrimidin-4-yl]methoxy}phenyl)propanoate] | – | 23.05% @ 10 uM |
| CCCCCCCCOC(=O)[C@@H](Cc1ccccc1OCc1ccnc(-c2ccccc2OC)n1)Oc1ncnc2sc(-c3ccc(F)cc3)c(-c3ccc(OC)c(Cl)c3C)c12 [Example 847, octyl (2R)-2-{[(5Sa)-5-(3-chloro-4-methoxy-2-methylphenyl)-6-(4-fluorophenyl)thieno[2,3-d]pyrimidin-4-yl]oxy}-3-(2-{[2-(2-methoxyphenyl)pyrimidin-4-yl]methoxy}phenyl)propanoate] | – | 3.55% @ 10 uM |
| CCCCCCCCOC(=O)[C@@H](Cc1ccccc1OC)Oc1ncnc2sc(-c3ccc(F)cc3)c(-c3ccc(OCCN4CCN(C)CC4)c(Cl)c3C)c12 [Example 850, octyl (2R)-2-{[(5Sa)-5-{3-chloro-2-methyl-4-[2-(4-methylpiperazin-1-yl)ethoxy]phenyl}-6-(4-fluorophenyl)thieno[2,3-d]pyrimidin-4-yl]oxy}-3-(2-methoxyphenyl)propanoate] | – | 29.4% @ 10 uM |

The next lines start with the values.

| IC50 | percentage fluorescence polarisation inhibition (Mcl-1 FP), partial inhibitors | Compound |
| --- | --- | --- |
| 1.28e-07 M | – | COc1ccccc1CC(Oc1ncnc2sc(-c3ccc(F)cc3)c(-c3ccc(OC)c(Cl)c3C)c12)C(=O)O [Example 840, (2R)-2-{[(5Sa)-5-(3-chloro-4-methoxy-2-methylphenyl)-6-(4-fluorophenyl)thieno[2,3-d]pyrimidin-4-yl]oxy}-3-(2-methoxyphenyl)propanoic acid] |
| – | 7.65% @ 10 uM | CCOC(=O)[C@@H](Cc1ccccc1OC)Oc1ncnc2sc(-c3ccc(F)cc3)c(-c3ccc(OC)c(Cl)c3C)c12 [Example 842, ethyl (2R)-2-{[(5Sa)-5-(3-chloro-4-methoxy-2-methylphenyl)-6-(4-fluorophenyl)thieno[2,3-d]pyrimidin-4-yl]oxy}-3-(2-methoxyphenyl)propanoate] |
| 1.67e-06 M | – | COc1ccccc1CC(Oc1ncnc2sc(-c3ccc(F)cc3)c(-c3ccc(OCCN4CCN(C)CC4)c(Cl)c3C)c12)C(=O)OCC(=O)N(C)C [Example 844, 2-(dimethylamino)-2-oxoethyl (2R)-2-{[(5Sa)-5-{3-chloro-2-methyl-4-[2-(4-methylpiperazin-1-yl)ethoxy]phenyl}-6-(4-fluorophenyl)thieno[2,3-d]pyrimidin-4-yl]oxy}-3-(2-methoxyphenyl)propanoate] |
| – | 7.85% @ 10 uM | COc1ccccc1C[C@@H](Oc1ncnc2sc(-c3ccc(F)cc3)c(-c3ccc(OC)c(Cl)c3C)c12)C(=O)OCC(=O)N(C)C [Example 845, 2-(dimethylamino)-2-oxoethyl (2R)-2-{[(5Sa)-5-(3-chloro-4-methoxy-2-methylphenyl)-6-(4-fluorophenyl)thieno[2,3-d]pyrimidin-4-yl]oxy}-3-(2-methoxyphenyl)propanoate] |
| – | 25.1% @ 10 uM | COc1ccccc1C[C@@H](Oc1ncnc2sc(-c3ccc(F)cc3)c(-c3ccc(OC)c(Cl)c3C)c12)C(=O)OCOC(=O)C(C)(C)C [Example 846, {[(2R)-2-{[(5Sa)-5-(3-chloro-4-methoxy-2-methylphenyl)-6-(4-fluorophenyl)thieno[2,3-d]pyrimidin-4-yl]oxy}-3-(2-methoxyphenyl)propanoyl]oxy}methyl 2,2-dimethylpropanoate] |
| – | 46.7% @ 10 uM | COc1ccccc1-c1nccc(COc2ccccc2C[C@@H](Oc2ncnc3sc(-c4ccc(F)cc4)c(-c4ccc(OC)c(Cl)c4C)c23)C(=O)OCC(=O)N(C)C)n1 [Example 848, 2-(dimethylamino)-2-oxoethyl (2R)-2-{[(5Sa)-5-(3-chloro-4-methoxy-2-methylphenyl)-6-(4-fluorophenyl)thieno[2,3-d]pyrimidin-4-yl]oxy}-3-(2-{[2-(2-methoxyphenyl)pyrimidin-4-yl]methoxy}phenyl)propanoate] |
| – | 61.35% @ 10 uM | COc1ccccc1-c1nccc(COc2ccccc2C[C@@H](Oc2ncnc3sc(-c4ccc(F)cc4)c(-c4ccc(OC)c(Cl)c4C)c23)C(=O)OCOC(=O)C(C)(C)C)n1 [Example 849, {[(2R)-2-{[(5Sa)-5-(3-chloro-4-methoxy-2-methylphenyl)-6-(4-fluorophenyl)thieno[2,3-d]pyrimidin-4-yl]oxy}-3-(2-{[2-(2-methoxyphenyl)pyrimidin-4-yl]methoxy}phenyl)propanoyl]oxy}methyl 2,2-dimethylpropanoate] |
| – | 7.85% @ 10 uM | CCCCCCCCOC(=O)[C@@H](Cc1ccccc1OC)Oc1ncnc2sc(-c3ccc(F)cc3)c(-c3ccc(OC)c(Cl)c3C)c12 [Example 851, octyl (2R)-2-{[(5Sa)-5-(3-chloro-4-methoxy-2-methylphenyl)-6-(4-fluorophenyl)thieno[2,3-d]pyrimidin-4-yl]oxy}-3-(2-methoxyphenyl)propanoate] |
